Assay results published in patent US9952300B2, “Dynamic contrast enhanced MRI method and agents for the assessment of the macromolecular transport within pathologic tissues” (BRACCO IMAGING S.P.A., priority 2012, dated 2018).
Values joined by “and” are separate entries in the source; they are usually repeats but may differ in a detail not shown here. Identical values can stand only once.

Assays:
[1] = test system: PC-3 human prostate adenocarcinoma tumor; assay: DCE-MRI of contrast agent kinetics in PC-3 tumors of Axitinib- or vehicle-treated mice (Example 3); assay type: in vivo, NCR athymic nude mice; details: contrast agent 100 μmol/kg i.v., one value per animal
Source text: The comparative test has been performed using NCR athymic nude mice implanted with PC-3 cells (a human prostate cancer line) and treated with Axitinib®, a VEGFRs inhibitor, (to modulate the tumor vascular permeability) by a protocol which timing is for instance schematized in FIG. 1. Scope of the test was to compare the image-based analysis of the albumin distribution in a human tumor model as extracted from the analysis of a time-serie of MRI images (with spatial resolution of around 110 μm) acquired with the method of the invention after injection of B22956/1 as contrast agent, and the distribution of FITC-BSA (Fluorescent isothiocyanate Bovine Serum Albumin) albumin inside and outside vessels histologically determined from fluorescent microscopy images on a scale of microns.
In particular, the trans-endothelial permeability (K^Trans) and the fractional plasma volume (fPV) were calculated from dynamic MR data by application of a bi-compartmental pharmacokinetic model, while the Initial Area Under the Curve (IAUCT) was calculated in several time windows, typically comprised between the contrast agent administration and the end of the MRI acquisition. The macromolecular penetration in tumors was, then, probed by fluorescently labelled Bovine Serum Albumin administered via tail vein after the last MRI session. Microscopic images were used to quantify the percentage of area stained by fluorescent albumin in the tumor, as a measure of the blood vessel density, using an automatic thresholding method. The albumin extravasation in the tumor extravascular space was assessed based on the fluorescence found out of the blood vessels from histological samples taken from both of tumor rim and core, for instance as schematized in FIG. 2. In particular, the albumin florescence was averaged over all pixels at a given distance from the nearest vessel and stored as a function of distance from the vessels walls, by use of an optimized procedure, for instance schematized in FIG. 3, providing both a quantification of the availability of the albumin in the extravascular space of the concerned tumor, namely the amount of the extravasated FITC-Albumin, and the decay of its concentration over the distance x from a nearest vessel, or, in other words, its actual distribution and dilution within the extracellular spaces (for instance as schematized in FIG. 4).
Human prostate adenocarcinoma cells (PC-3) were supplied by ATCC (American Type Culture Collection) and grown in Hams F-12 medium supplemented with 10% foetal bovine serum, 2 mM glutamine, 100 IU/mL penicillin and 100 μg/mL streptomycin (all from Lonza, Verviers, Belgium). […] Tumour development was followed by palpation and measured by calliper every 2-3 days until the end of the experiment. […]

[2] = target: Human Serum Albumin (Homo sapiens, UniProt P02768); details: literature; cited from earlier work
Chain of Human Serum Albumin (P02768 25-609): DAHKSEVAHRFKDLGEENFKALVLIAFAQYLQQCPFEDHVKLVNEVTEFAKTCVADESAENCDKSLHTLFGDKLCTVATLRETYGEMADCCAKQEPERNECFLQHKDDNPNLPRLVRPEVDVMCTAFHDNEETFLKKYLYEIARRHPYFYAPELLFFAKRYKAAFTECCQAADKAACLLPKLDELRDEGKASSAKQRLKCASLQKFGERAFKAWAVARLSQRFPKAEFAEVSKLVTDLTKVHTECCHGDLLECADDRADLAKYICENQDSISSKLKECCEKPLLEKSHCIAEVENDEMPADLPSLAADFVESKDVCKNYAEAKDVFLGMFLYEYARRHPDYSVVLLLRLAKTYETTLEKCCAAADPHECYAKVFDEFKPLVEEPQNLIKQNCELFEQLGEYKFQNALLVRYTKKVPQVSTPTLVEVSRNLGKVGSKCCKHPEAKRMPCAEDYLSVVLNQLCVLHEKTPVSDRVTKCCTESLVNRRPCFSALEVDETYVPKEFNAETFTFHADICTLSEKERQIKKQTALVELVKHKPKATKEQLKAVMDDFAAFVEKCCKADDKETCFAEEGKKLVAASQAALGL

[3] = test system: tumor tissues; details: literature (Maeda et al.); cited from earlier work

CNC[C@H](O)[C@@H](O)[C@H](O)[C@H](O)CO.CNC[C@H](O)[C@@H](O)[C@H](O)[C@H](O)CO.O=C([O-])CN(CCN(CC(=O)[O-])CC(=O)O)CCN(CC(=O)O)C(COCc1ccccc1)C(=O)[O-].[Gd+3] (stereo not shown) [MultiHance, reference compound]
kTrans (Transfer Constant) ([1]; tumor core): 3.63 mL\(min × g) × 100 and 1.02 mL\(min × g) × 100 and 2.86 mL\(min × g) × 100 and 3.57 mL\(min × g) × 100 and 2.54 mL\(min × g) × 100 and 1.53 mL\(min × g) × 100 and 0.82 mL\(min × g) × 100 and 3.15 mL\(min × g) × 100 and 4.46 mL\(min × g) × 100 and 1.08 mL\(min × g) × 100 and 1.63 mL\(min × g) × 100 and 3.19 mL\(min × g) × 100 and 2.6 mL\(min × g) × 100 and 4.07 mL\(min × g) × 100 and 1.06 mL\(min × g) × 100 | kTrans (Transfer Constant) ([1]; tumor rim): 8.14 mL\(min × g) × 100 and 3.59 mL\(min × g) × 100 and 3.81 mL\(min × g) × 100 and 4.51 mL\(min × g) × 100 and 4.22 mL\(min × g) × 100 and 4.44 mL\(min × g) × 100 and 3.23 mL\(min × g) × 100 and 4.78 mL\(min × g) × 100 and 6.14 mL\(min × g) × 100 and 1.74 mL\(min × g) × 100 and 5.23 mL\(min × g) × 100 (2×) and 5.82 mL\(min × g) × 100 and 3.76 mL\(min × g) × 100 and 2.88 mL\(min × g) × 100

O=C([O-])CN(CCN(CC(=O)[O-])C[C@H](COP(=O)([O-])OC1CCC(c2ccccc2)(c2ccccc2)CC1)N(CC(=O)[O-])CC(=O)[O-])CC(=O)[O-].[Gd+3].[H+].[H+].[H+] [Gadofosveset, reference compound]
non-covalent binding with Human Serum Albumin [2]: about 90%

B1: SMANCS (conjugate, UniProt P0A3R9 35-147, looked up)
Neocarzinostatin: AAPTATVTPSSGLSDGTVVKVAGAGLQAGTAYDVGQCAWVDTGVLACNPADFSSVTADANGSASTSLTVRRSFEGFLFDGTRWGTVDCTTAACQVGLSDAAGNGPEGVAISFN
modifications: styrene-maleic acid copolymer conjugate
spontaneous accumulation within tumor tissues versus normal tissues and organs [3]: up to 200 times
